In brackets after ≈: the same amount, converted by molar mass. Like-named read-outs stand apart in the source and are kept apart here.
How the values were obtained:
E. faecium 5F-10 = assay: microbe, parasite or virus in culture; assay type: cell-based, Enterococcus faecium; details: Enterococcus faecium, 5F10
Experimental: (§1) An antimicrobial activity study was conducted on all peptides against a panel of laboratory bacteria, including ATCC source and clinical isolates with resistance determinants. According to CLSI2021 guidelines, we tested the minimum inhibitory concentrations (MICs) of peptides using standard broth micro-dilutions. Briefly, bacteria grown to exponential phase were diluted in 1:1000 to MHB, subsequently, equivalent amounts of bacterial suspension (1.5 × 10^6 CFUs/mL) were mixed with different concentrations of peptides in a sterilized 96-well microtiter plate (Corning).

E. coli DH5α (PUC19) = assay: MIC broth microdilution; assay type: cell-based, Escherichia coli; details: Escherichia coli; engineered E. coli DH5α (PUC19); MHB, 16-18 h, 37 °C; read-out: MIC
Experimental: as §1

[1] = system: E. coli DH5α (PUC19-mcr-1); assay: MIC broth microdilution; assay type: cell-based, Escherichia coli; details: Escherichia coli
Experimental: as §1

[2] = system: E. faecalis A4 (VRE, VanA); assay: microbe, parasite or virus in culture; assay type: cell-based; details: Enterococcus faecalis
Experimental: as §1

E. faecalis 1F-1 = assay: microbe, parasite or virus in culture; assay type: cell-based; details: Enterococcus faecalis, 1F1; E. faecalis 1F-1; MHB, 16-18 h, 37 °C; read-out: MIC
Experimental: as §1

[3] = system: S. enteritidis ATCC 13076; assay: microbe, parasite or virus in culture; assay type: cell-based; details: Salmonella enterica
Experimental: as §1

S. aureus ATCC 29213 = assay: microbe, parasite or virus in culture; assay type: cell-based, Staphylococcus aureus; details: Staphylococcus aureus, ATCC29213
How it was run: (§2)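 Bacteria are grown to exponential phase, diluted 1:1000 in MHB, then combined at 1.5 × 10^6 CFUs/mL with different peptide concentrations. MICs follow standard CLSI2021 broth micro-dilution.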

MRSA T144 = assay: microbe, parasite or virus in culture; assay type: cell-based, Staphylococcus aureus; details: Staphylococcus aureus; MRSA T144; MHB, 16-18 h, 37 °C; read-out: MIC
How it was run: as §2

S. aureus G16 (RIF^R) = assay: MIC broth microdilution; assay type: cell-based, Staphylococcus aureus; details: Staphylococcus aureus
Experimental: as §1

[4] = system: S. aureus 215 (cfr + LZD^R); assay: MIC broth microdilution; assay type: cell-based, Staphylococcus aureus; details: Staphylococcus aureus
Experimental: as §1

MRSA 1518 = assay: microbe, parasite or virus in culture; assay type: cell-based, Staphylococcus aureus; details: Staphylococcus aureus; MRSA 1518; MHB, 16-18 h, 37 °C; read-out: MIC
Experimental: as §1

MRSA 1530 = assay: microbe, parasite or virus in culture; assay type: cell-based, Staphylococcus aureus; details: Staphylococcus aureus; MRSA 1530; MHB, 16-18 h, 37 °C; read-out: MIC
Experimental: as §1

P. aeruginosa PA14 = assay: microbe, parasite or virus in culture; assay type: cell-based, Pseudomonas aeruginosa; details: Pseudomonas aeruginosa
Experimental: as §1

[5] = system: E. coli DH5α (PUC19-tet(X4)); assay: MIC broth microdilution; assay type: cell-based; details: Escherichia coli
Experimental: as §1

[6] = system: E. coli DH5α (PUC19-blaNDM-1); assay: MIC broth microdilution; assay type: cell-based; details: Escherichia coli
Experimental: as §1

[7] = system: E. coli DH5α (PUC19-blaNDM-9); assay: MIC broth microdilution; assay type: cell-based; details: Escherichia coli
Experimental: as §1

[8] = system: E. coli DH5α (PUC19-blaNDM-5); assay: MIC broth microdilution; assay type: cell-based; details: Escherichia coli
Experimental: as §1

E. coli ATCC 25922 = assay: microbe, parasite or virus in culture; assay type: cell-based, Escherichia coli; details: Escherichia coli, ATCC25922
How it was run: as §2

[9] = system: E. coli B2 (blaNDM-5 + mcr-1); assay: microbe, parasite or virus in culture; assay type: cell-based, Escherichia coli; details: Escherichia coli; E. coli B2 (blaNDM-5 + mcr-1); MHB, 16-18 h, 37 °C; read-out: MIC
How it was run: as §2

[10] = system: P. cibarius HNCF44W (blaNDM-1 + tet(X6)); assay: organism not typed; assay type: cell-based; details: P. cibarius HNCF44W (blaNDM-1 + tet(X6)); MHB, 16-18 h, 37 °C; read-out: MIC
Experimental: as §1

[11] = system: sensitive E. coli ATCC 25922; assay: Checkerboard assay with LI14; assay type: cell-based, Escherichia coli
Experimental: (§3) Through checkerboard assay using two-fold serially diluted drugs (8 × 8 matrix), we evaluated the synergistic effects of LI14 with different mechanisms of antibiotics. The absorbance of cultures at 600 nm was determined by a Microplate reader after 18 h of incubation with (1.5 × 10^6 CFUs/mL) bacterial suspension. The FIC index (FICI) was calculated by performing two biological replicates for each combination. The formula is as follows: FIC index = FICIa + FICIb = MICab/MICa + MICba/Mb. An FIC index of ≤0.5 indicates synergy.
(§4) a/bMICs of antibiotics in the absence or presence of ¼ MIC of LI14.
(§5) cDegree of antibiotics potentiation in the presence of ¼ MIC of LI14.
(§6) –, none of potentiation activity.

[12] = system: tigecycline-resistant E. coli B3-1; assay: Checkerboard assay with LI14; assay type: cell-based, Escherichia coli
Experimental: as §3, §4, §5, §6

E. coli G6 (blaNDM-5) = assay: microbe, parasite or virus in culture; assay type: cell-based, Escherichia coli; details: Escherichia coli; E. coli G6 (blaNDM-5); MHB, 16-18 h, 37 °C; read-out: MIC
Experimental: as §1

E. coli C3 (blaNDM-1) = assay: microbe, parasite or virus in culture; assay type: cell-based, Escherichia coli; details: Escherichia coli; E. coli C3 (blaNDM-1); MHB, 16-18 h, 37 °C; read-out: MIC
Experimental: as §1

E. coli CP131 (mcr-3) = assay: microbe, parasite or virus in culture; assay type: cell-based, Escherichia coli; details: Escherichia coli
Experimental: as §1

E. coli B3-1 (tet(X4)) = assay: microbe, parasite or virus in culture; assay type: cell-based, Escherichia coli; details: Escherichia coli; E. coli B3-1 (tet(X4)); MHB, 16-18 h, 37 °C; read-out: MIC
Experimental: as §1

E. coli 1F28 (tet(X4)) = assay: microbe, parasite or virus in culture; assay type: cell-based, Escherichia coli; details: Escherichia coli; E. coli 1F28 (tet(X4)); MHB, 16-18 h, 37 °C; read-out: MIC
Experimental: as §1

E. coli G92 (mcr-1) = assay: microbe, parasite or virus in culture; assay type: cell-based, Escherichia coli; details: Escherichia coli
Experimental: as §1

[13] = system: K. pneumoniae ATCC 700603; assay: microbe, parasite or virus in culture; assay type: cell-based, Klebsiella pneumoniae; details: Klebsiella pneumoniae, ATCC700603; K. pneumoniae ATCC 700603; MHB, 16-18 h, 37 °C; read-out: MIC
Experimental: as §1

[14] = system: K. pneumoniae D120 (mcr-8); assay: microbe, parasite or virus in culture; assay type: cell-based, Klebsiella pneumoniae; details: Klebsiella pneumoniae; K. pneumoniae D120 (mcr-8); MHB, 16-18 h, 37 °C; read-out: MIC
Experimental: as §1

[15] = system: A. baumannii C222 (tet(X6)); assay: microbe, parasite or virus in culture; assay type: cell-based, Acinetobacter baumannii; details: Acinetobacter baumannii
Experimental: as §1

A. baumannii ATCC 19609 = assay: microbe, parasite or virus in culture; assay type: cell-based, Acinetobacter baumannii; details: Acinetobacter baumannii, ATCC19609; A. baumannii ATCC 19609; MHB, 16-18 h, 37 °C; read-out: MIC
Experimental: as §1

[16] = serum versus MHB broth medium; cited from earlier work
Text: Amphiphilicity, ɑ-helicity and appropriate peptide chain length are key factors for AMP activity.

MDR E. coli B2 = assay: Checkerboard assay with LI14; assay type: cell-based, Escherichia coli
Experimental: as §3, §4, §5, §6

[17] = antibiotic in combination with LI14, checkerboard
[18] = in the presence of ¼ MIC of LI14

Compound | MIC (E. coli DH5α (PUC19)) | MIC [1] | MIC (E. faecalis 1F-1) | MIC (MRSA T144) | MIC (S. aureus G16 (RIF^R)) | MIC [4] | MIC (MRSA 1518) | MIC (MRSA 1530) | MIC [5] | MIC [9] | MIC [10] | MIC (E. coli G6 (blaNDM-5)) | MIC (E. coli C3 (blaNDM-1)) | MIC (E. coli B3-1 (tet(X4))) | MIC (E. coli 1F28 (tet(X4))) | MIC [13] | MIC [14] | MIC (A. baumannii ATCC 19609) | also measured
CN(C)c1cc(NC(=O)CNC(C)(C)C)c(O)c2c1C[C@H]1C[C@H]3[C@H](N(C)C)C(O)=C(C(N)=O)C(=O)[C@@]3(O)C(O)=C1C2=O [Tigecycline] | 1 µg/mL (≈ 1.71 µM) | 1 µg/mL (≈ 1.71 µM) | 16 µg/mL (≈ 27.3 µM) | 0.25 µg/mL (≈ 0.427 µM) | < 0.0625 µg/mL | 0.25 µg/mL (≈ 0.427 µM) | 0.25 µg/mL (≈ 0.427 µM) | 1 µg/mL (≈ 1.71 µM) | 64 µg/mL (≈ 109 µM) | 2 µg/mL | 64 µg/mL | 2 µg/mL (≈ 3.41 µM) | 2 µg/mL (≈ 3.41 µM) | 32 µg/mL (≈ 54.6 µM) | 16 µg/mL (≈ 27.3 µM) | 0.5 µg/mL (≈ 0.854 µM) | 0.25 µg/mL (≈ 0.427 µM) | 0.25 µg/mL (≈ 0.427 µM) | MIC (E. faecium 5F-10): < 0.0625 µg/mL; MIC ([2]; VRE): < 0.0625 µg/mL; MIC [3]: 0.125 µg/mL (≈ 0.213 µM); MIC (S. aureus ATCC 29213): 0.125 µg/mL (≈ 0.213 µM); MIC (P. aeruginosa PA14; PA14): < 0.0625 µg/mL; MIC [6]: 1 µg/mL (≈ 1.71 µM); MIC [7]: 1 µg/mL (≈ 1.71 µM); MIC [8]: 1 µg/mL (≈ 1.71 µM); MIC (E. coli ATCC 25922): 0.125 µg/mL (≈ 0.213 µM); FIC index [11, 17]: 0.5; MICa of antibiotic ([11]; in the absence of LI14): 0.063 µg/mL; MICb of antibiotic [11, 18]: 0.016 µg/mL; Potentiation [11, 18]: 4 fold; FIC index [12, 17]: 0.125; MICa of antibiotic ([12]; in the absence of LI14): 32 µg/mL; MICb of antibiotic [12, 18]: 2 µg/mL; Potentiation [12, 18]: 16 fold; MIC (E. coli CP131 (mcr-3); E. coli CP131 (mcr-3), MHB, 16-18 h, 37 °C, read-out: MIC): 2 µg/mL (≈ 3.41 µM); MIC (E. coli G92 (mcr-1); E. coli G92 (mcr-1), MHB, 16-18 h, 37 °C, read-out: MIC): 4 µg/mL (≈ 6.83 µM); MIC ([15]; A. baumannii C222 (tet(X6)), MHB, 16-18 h, 37 °C, read-out: MIC): 64 µg/mL (≈ 109 µM)
LL-37: human AMP LL-37, previously reported peptide antibiotic | – | – | – | – | – | – | – | – | – | – | – | – | – | – | – | – | – | – | Change of MIC value in serum [16]: greater than 128 fold
C[C@@H](O)[C@H]1C(=O)N2C(C(=O)O)=C(S[C@@H]3CN[C@H](C(=O)N(C)C)C3)[C@H](C)[C@H]12 [Meropenem] | < 0.125 µg/mL | < 0.125 µg/mL | 8 µg/mL (≈ 20.9 µM) | 1 µg/mL (≈ 2.61 µM) | 2 µg/mL (≈ 5.22 µM) | 1 µg/mL (≈ 2.61 µM) | 0.25 µg/mL (≈ 0.652 µM) | 0.25 µg/mL (≈ 0.652 µM) | < 0.125 µg/mL | 32 µg/mL | > 16 µg/mL | 64 µg/mL (≈ 167 µM) | 8 µg/mL (≈ 20.9 µM) | < 0.0625 µg/mL | 0.25 µg/mL (≈ 0.652 µM) | < 0.0625 µg/mL | < 0.0625 µg/mL | < 0.0625 µg/mL | MIC (E. faecium 5F-10; E. faecium 5F-10, MHB, 16-18 h, 37 °C, read-out: MIC): 8 µg/mL (≈ 20.9 µM); MIC ([2]; E. faecalis A4 (VRE, VanA), MHB, 16-18 h, 37 °C, read-out: MIC): > 64 µg/mL; MIC ([3]; S. enteritidis ATCC 13076, MHB, 16-18 h, 37 °C, read-out: MIC): < 0.0625 µg/mL; MIC (S. aureus ATCC 29213; S. aureus ATCC 29213, MHB, 16-18 h, 37 °C, read-out: MIC): < 0.0625 µg/mL; MIC (P. aeruginosa PA14; P. aeruginosa PA14, MHB, 16-18 h, 37 °C, read-out: MIC): 32 µg/mL (≈ 83.4 µM); MIC (E. coli ATCC 25922; E. coli ATCC 25922, MHB, 16-18 h, 37 °C, read-out: MIC): 0.03 µg/mL (≈ 0.0782 µM); FIC index (MDR E. coli B2; antibiotic in combination with LI14, checkerboard 8 × 8, 18 h, ≤0.5 = synergy): 2; MICa of antibiotic (MDR E. coli B2; in the absence of LI14): 32 µg/mL; MICb of antibiotic (MDR E. coli B2; [18]): 32 µg/mL; MIC (E. coli CP131 (mcr-3)): < 0.125 µg/mL; MIC (E. coli G92 (mcr-1)): < 0.125 µg/mL; MIC [15]: < 0.125 µg/mL

Reference: publication PMC9452538, “The antimicrobial peptide LI14 combats multidrug-resistant bacterial infections” (Communications Biology, 2022)
